Consider three compounds from patent EP4813403A1, “USE OF GLP-1R/GIPR DOUBLE-TARGET AGONIST IN PREPARING ANIMAL DRUG” (Hangzhou Zhongmeihuadong Pharmaceutical Co., Ltd., priority 2023, dated 2025).

The structures appear in SMILES notation.

The test system of one series is db/db mice. Briefly: Pharmacodynamic effects in db/db mice, single subcutaneous administration (blood glucose). As to conditions: single s.c. 10 nmol/kg. In kind it is in vivo. The method, then: In this study, 8-9 week old male db/db mice were used. The db/db mice were placed in an individual ventilated cage (IVC) facility with a controlled temperature (20-26°C) and humidity (40-70%) and a controlled 12h:12 h light-dark cycle. The mice can receive food and water ad libitum. Blood was sampled at the tail tip, and the random base blood glucose was measured by a Roche blood glucose meter. The mice were randomly divided into groups according to the random initial fasting blood glucose and initial body weight (n=6/group), and each group had similar body weight and blood glucose.
After a single subcutaneous administration, the random base blood glucoses were recorded at the set time point (0 to 120 hours, the recording of the random base blood glucose was stopped until there was no difference between the random base blood glucose of the compound and that of the vehicle group), and the daily body weight and food intake were also recorded. The data results were statistically analyzed using GraphPad Prism8, and the statistical differences among the groups were analyzed following a T-Test. Significant differences were identified at p<0.05.
Hypoglycemic Duration: the longest time during which the random base blood glucose of the compound has a significant difference (p<0.05) vs. the vehicle group. Table 13. Hypoglycemic Duration of the Compounds

A further series concerns the target human GLP-1R (Homo sapiens, UniProt P43220). Briefly: In vitro binding activity to human GLP-1 receptor ([125I]GLP-1 displacement, crude cell membranes). As to conditions: ratio of the Ki value of the endogenous ligand to the Ki value of the test compound; larger ratio = stronger binding. The arrangement: expressed in transfected cells. How it is done: (§1) 89 µL of membrane dissolved in binding buffer (50 mM Hepes, pH 7.4, 5 mM MgCl2 , 5 mM EDTA, 0.005% TWEEN, 0.005% HSA) was transferred to a 96-well test plate (5 µg/well). The compound was serially diluted in DMSO, and then, 1 µL of the diluted compound or 100% DMSO was added to the test plate containing the membrane solution. 10 µL of [^125I] […] The test plate was left at room temperature for 90 minutes. The membrane complexes were harvested into a GF/B plate pre-coated with 0.5% PEI by using a Cell Harvester, and washed for 3 times with 500 µL of pre-cooled elution buffer (50 mM Hepes, pH 7.4, 500 mM NaCl) at 4°C. After drying at 37°C for 2 hours, 50 µL of scintillation fluid was added to each well. The plate was read with a MicroBeta2 scintillation counter after sealing and settling for at least 1 hour so as to determine the membrane bound radioligand level.
The IC50 concentration was converted to Ki (Ki was the inhibition constant) using the Cheng-Prusoff equation.

The next series deals with T1, human GIP Receptor (Homo sapiens, UniProt P48546).
T1 construct: expressed in transfected cells
T1 sequence (P48546 22-466): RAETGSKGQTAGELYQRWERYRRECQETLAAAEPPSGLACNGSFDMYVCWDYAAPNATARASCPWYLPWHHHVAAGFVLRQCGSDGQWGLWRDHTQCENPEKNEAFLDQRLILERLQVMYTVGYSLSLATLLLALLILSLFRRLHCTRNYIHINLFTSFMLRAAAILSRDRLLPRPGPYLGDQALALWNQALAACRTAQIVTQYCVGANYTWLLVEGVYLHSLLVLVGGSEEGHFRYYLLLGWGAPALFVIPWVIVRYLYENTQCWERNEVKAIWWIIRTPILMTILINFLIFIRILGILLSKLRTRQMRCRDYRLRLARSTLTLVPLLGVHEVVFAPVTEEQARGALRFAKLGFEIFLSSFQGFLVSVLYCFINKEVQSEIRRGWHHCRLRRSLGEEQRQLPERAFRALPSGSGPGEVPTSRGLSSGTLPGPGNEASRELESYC
Briefly: In vitro binding activity to human GIP receptor ([125I]GIP displacement, crude cell membranes). As to conditions: ratio of the Ki value of the endogenous ligand to the Ki value of the test compound; larger ratio = stronger binding. The method, then: as §1
hGIP and the compound of the present invention were dissolved in DMSO and stored at -80°C. 98 µL of membrane dissolved in binding buffer (50 mM HEPES pH 7.4, 5 mM MgCl2, 1 mM CaCl2, 0.1% BSA, 0.005% Tween-20) was transferred to a 96-well test plate (15 µg/well). The compound was serially diluted in DMSO, and then, 2 µL of the diluted compounds or 100% DMSO was added to the test plate containing the membrane solution. […] The test plate was left at room temperature for 90 minutes. The membrane complexes were harvested into a GF/B plate pre-coated with 0.5% PEI by using a Cell Harvester, and washed for 3 times with 500 µL of pre-cooled elution buffer (50 mM Tris-HCl pH 7.4, 125 mM NaCl) at 4°C. After drying at 37°C for 2 hours, 50 µL of scintillation fluid was added to each well. The plate was read with a MicroBeta2 scintillation counter after sealing and settling for at least 1 hour so as to determine the membrane bound radioligand level.
The IC50 concentration was converted to Ki (Ki was the inhibition constant) using the Cheng-Prusoff equation. Table 1. Receptor Binding Affinity, Ki Ratio

The nature of series [1]: Pharmacokinetics following single administration in SD rats. As to conditions: male, Sprague-Dawley, rat, in vivo, sc. How it is done: The compound was administrated to male SD rats (230-268 g, n=3) at a dose of 50.0 nmol/kg (s.c.) or 25.0 nmol/kg (i.v.). […] 30.0 μL of thawed plasma sample was taken. 150 μL of acetonitrile solution (containing 5 ng·mL^-1 Verapamil , 50 ng·mL^-1 Glibenclamide, 200 ng·mL^-1 Tolbutamide and 200 ng·mL^-1 Diclofenac) were added to precipitate protein. The mixture was vortexed for 5 minutes, and centrifuged at 3700 rpm for 8 minutes. 70.0 μL of the supernatant was taken, into which 70.0 μL of 0.5% aqueous formic acid solution was added. The mixture was vortexed for 5 minutes. 15 μL of the mixture solution was sampled and injected into the LC-MS/MS to determine the drug concentration in plasma. 20.0 μL of thawed plasma sample was taken. 60 μL of acetonitrile solution (containing 5 ng·mL^-1 Verapamil, 50 ng·mL^-1 Glibenclamide, 200 ng·mL^-1 Tolbutamide and 200 ng·mL^-1 Diclofenac) were added to precipitate protein. […] The mixture was vortexed for 10 minutes. 10.0 μL of the mixture solution was sampled and injected into the LC-MS/MS to determine the drug concentration in plasma. 30.0 μL of thawed plasma sample was taken. 150 μL of acetonitrile solution (containing 5 ng·mL^-1 Verapamil, 50 ng·mL^-1 Glibenclamide, 200 ng·mL^-1 Tolbutamide and 200 ng·mL^-1 Diclofenac) were added to precipitate protein. The mixture was vortexed for 5 minutes, and centrifuged at 3700 rpm for 8 minutes. 70.0 μL of the supernatant was taken, into which 70.0 μL of 0.5% aqueous formic acid solution was added. The mixture was vortexed for 5 minutes. 10.0 μL of the mixture solution was sampled and injected into the LC-MS/MS to determine the drug concentration in plasma. […] Table 5 Pharmacokinetic Parameters after Subcutaneous Injection of Different Polypeptide Compounds to Rats

Where [2] appears, read: Group 2, longest time with p<0.05 vs. vehicle.

Broadly, the Tmax is the time from dosing to the highest level. As usually defined, the half-life is the time needed for the level to fall by half in the phase considered.

Sequence of human GLP-1R (P43220 24-463): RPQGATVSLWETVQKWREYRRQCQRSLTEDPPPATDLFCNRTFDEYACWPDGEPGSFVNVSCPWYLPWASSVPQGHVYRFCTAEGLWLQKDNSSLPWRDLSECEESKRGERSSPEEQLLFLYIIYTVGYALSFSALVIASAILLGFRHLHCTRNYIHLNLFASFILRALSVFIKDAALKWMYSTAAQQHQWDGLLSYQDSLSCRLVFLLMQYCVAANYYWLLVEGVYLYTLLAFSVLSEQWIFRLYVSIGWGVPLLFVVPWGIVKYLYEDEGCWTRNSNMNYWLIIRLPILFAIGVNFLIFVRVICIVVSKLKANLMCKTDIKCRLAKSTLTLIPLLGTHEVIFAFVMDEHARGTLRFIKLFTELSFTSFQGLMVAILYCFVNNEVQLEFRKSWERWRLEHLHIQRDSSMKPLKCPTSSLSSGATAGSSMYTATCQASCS

As to `CC[C@H](C)[C@H](NC(=O)C(C)(C)NC(=O)[C@H](Cc1ccc(O)cc1)NC(=O)[C@H](CC(=O)O)NC(=O)[C@H](CO)NC(=O)[C@@H](NC(=O)C(C)(Cc1ccccc1)NC(=O)[C@@H](NC(=O)CNC(=O)[C@H](CCC(=O)O)NC(=O)C(C)(C)NC(=O)[C@@H](N)Cc1ccc(O)cc1)[C@@H](C)O)[C@@H](C)O)C(=O)NC(C)(C)C(=O)N[C@@H](CC(C)C)C(=O)N[C@@H](CC(=O)O)C(=O)N[C@@H](CCCCN)C(=O)N[C@@H](CCC(N)=O)C(=O)N[C@@H](C)C(=O)N[C@@H](CCC(N)=O)C(=O)N[C@@H](C)C(=O)N[C@@H](CCC(=O)O)C(=O)N[C@@H](Cc1ccccc1)C(=O)N[C@H](C(=O)N[C@@H](CCCCN)C(=O)N[C@@H](Cc1c[nH]c2ccccc12)C(=O)N[C@@H](CC(C)C)C(=O)N[C@@H](CC(C)C)C(=O)N[C@@H](CCCCNC(=O)COCCOCCNC(=O)COCCOCCNC(=O)CC[C@H](NC(=O)CC[C@H](NC(=O)CC[C@H](NC(=O)CCCCCCCCCCCCCCCCC(=O)O)C(=O)O)C(=O)O)C(=O)O)C(=O)NCC(=O)NCC(=O)N1CCC[C@H]1C(=O)N[C@@H](CO)C(=O)N[C@@H](CO)C(=O)NCC(=O)N[C@@H](C)C(=O)N1CCC[C@H]1C(=O)N1CCC[C@H]1C(=O)N1CCC[C@H]1C(=O)N[C@@H](CO)C(=O)N[C@@H](CCCCN)C(N)=O)C(C)C` (stereo partly shown) [Compound P018], in the series with db/db mice (setting [2]), the “Hypoglycemic Duration” value came to 48 h. On human GLP-1R, the “GLP-1R Ki ratio” value was 1.45. In addition, the “GIPR Ki ratio” value at human GIP Receptor stood at 0.05. Also, in series [1], the Tmax is 24 h and the half-life is 18.3 ± 6.77 h.
Turning to `CC[C@H](C)[C@H](NC(=O)C(C)(C)NC(=O)[C@H](Cc1ccc(O)cc1)NC(=O)[C@H](CC(=O)O)NC(=O)[C@H](CO)NC(=O)[C@@H](NC(=O)C(C)(Cc1ccccc1)NC(=O)[C@@H](NC(=O)CNC(=O)[C@H](CCC(=O)O)NC(=O)C(C)(C)NC(=O)[C@@H](N)Cc1ccc(O)cc1)[C@@H](C)O)[C@@H](C)O)C(=O)NC(C)(C)C(=O)N[C@@H](CC(C)C)C(=O)N[C@@H](CC(=O)O)C(=O)N[C@@H](CCCCN)C(=O)N[C@@H](CCC(N)=O)C(=O)N[C@@H](C)C(=O)N[C@@H](CCC(N)=O)C(=O)N[C@@H](C)C(=O)N[C@@H](CCC(=O)O)C(=O)N[C@@H](Cc1ccccc1)C(=O)N[C@H](C(=O)N[C@@H](CCCCNC(=O)COCCOCCNC(=O)COCCOCCNC(=O)CC[C@H](NC(=O)CCCCCCCCCCCCCCCCCCC(=O)O)C(=O)O)C(=O)N[C@@H](Cc1c[nH]c2ccccc12)C(=O)N[C@@H](CC(C)C)C(=O)N[C@@H](CC(C)C)C(=O)N[C@@H](CCCCN)C(=O)NCC(=O)NCC(=O)N1CCC[C@H]1C(=O)N[C@@H](CO)C(=O)N[C@@H](CO)C(=O)NCC(=O)N[C@@H](C)C(=O)N1CCC[C@H]1C(=O)N1CCC[C@H]1C(=O)N1CCC[C@H]1C(=O)N[C@@H](CO)C(=O)N[C@@H](CCCCN)C(N)=O)C(C)C` (stereo partly shown) [Compound P013], the “Hypoglycemic Duration” value in the series on db/db mice (setting [2]) is given as 72 h. Further, the “GLP-1R Ki ratio” value on human GLP-1R was determined as 0.28. In addition, the “GIPR Ki ratio” value on human GIP Receptor was 0.14. In addition, in series [1], the Tmax came to 24 h and the half-life was 15 ± 0.737 h.
For the compound `CC[C@H](C)[C@H](NC(=O)C(C)(C)NC(=O)[C@H](Cc1ccc(O)cc1)NC(=O)[C@H](CC(=O)O)NC(=O)[C@H](CO)NC(=O)[C@@H](NC(=O)C(C)(Cc1ccccc1)NC(=O)[C@@H](NC(=O)CNC(=O)[C@H](CCC(=O)O)NC(=O)C(C)(C)NC(=O)[C@@H](N)Cc1ccc(O)cc1)[C@@H](C)O)[C@@H](C)O)C(=O)NC(C)(C)C(=O)N[C@@H](CC(C)C)C(=O)N[C@@H](CC(=O)O)C(=O)N[C@@H](CCCCN)C(=O)N[C@@H](CCC(N)=O)C(=O)N[C@@H](C)C(=O)N[C@@H](CCC(N)=O)C(=O)N[C@@H](C)C(=O)N[C@@H](CCC(=O)O)C(=O)N[C@@H](Cc1ccccc1)C(=O)N[C@H](C(=O)N[C@@H](CCCCN)C(=O)N[C@@H](Cc1c[nH]c2ccccc12)C(=O)N[C@@H](CC(C)C)C(=O)N[C@@H](CC(C)C)C(=O)N[C@@H](CCCCNC(=O)COCCOCCNC(=O)COCCOCCNC(=O)COCCOCCNC(=O)CC[C@H](NC(=O)CCCCCCCCCCCCCCCCC(=O)O)C(=O)O)C(=O)NCC(=O)NCC(=O)N1CCC[C@H]1C(=O)N[C@@H](CO)C(=O)N[C@@H](CO)C(=O)NCC(=O)N[C@@H](C)C(=O)N1CCC[C@H]1C(=O)N1CCC[C@H]1C(=O)N1CCC[C@H]1C(=O)N[C@@H](CO)C(=O)N[C@@H](CCCCN)C(N)=O)C(C)C` (stereo partly shown) [Compound P019], in the series on db/db mice, the “inhibition of the blood glucose AUC, times of that of P001” value is listed as 2.2 times. In the series on db/db mice (Group 1, longest time with p<0.05 vs. vehicle), the “Hypoglycemic Duration” value is reported as 56 h. Further, the “GLP-1R Ki ratio” value at human GLP-1R worked out at 0.93. The “GIPR Ki ratio” value at human GIP Receptor was found to be 0.09. Moreover, in series [1], the Tmax was found to be 13.3 ± 9.24 h and the half-life was 10.9 ± 1.92 h.
